{
  "source": "paper PMC6366416",
  "about": "“Synthesis and in vitro anticancer activity of certain novel 1-(2-methyl-6-arylpyridin-3-yl)-3-phenylureas as apoptosis-inducing agents” (Journal of Enzyme Inhibition and Medicinal Chemistry, 2019)",
  "key": {"SNB-19": {"tested_on": "SNB-19", "experiment": "NCI one-dose SRB growth inhibition", "type": "cell-based", "settings": "Homo sapiens, CNS Cancer, 48 h, read-out: GI% SNB-19", "summary_of_the_method": "(§1)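 Cells from a panel spanning colon, ovarian, prostate, leukemia, melanoma, CNS, renal, breast and lung cancers are treated with compound for 48 h. Growth and viability are then quantified by the SRB assay.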"}, "OVCAR-4": {"tested_on": "OVCAR-4", "experiment": "NCI one-dose SRB growth inhibition", "type": "cell-based", "settings": "Homo sapiens, Ovarian Cancer, 48 h, read-out: GI% OVCAR-4", "summary_of_the_method": "as §1"}, "LOX IMVI": {"tested_on": "LOX IMVI", "experiment": "NCI one-dose SRB growth inhibition", "type": "cell-based", "settings": "Homo sapiens, Melanoma, 48 h, read-out: GI% LOX IMVI", "summary_of_the_method": "as §1"}, "HCT-15": {"tested_on": "HCT-15", "experiment": "NCI one-dose SRB growth inhibition", "type": "cell-based", "settings": "Homo sapiens, HCT-15, 48 h, Colon Cancer, read-out: GI% HCT-15", "summary_of_the_method": "as §1"}, "COLO 205": {"tested_on": "COLO 205", "experiment": "NCI one-dose SRB growth inhibition", "type": "cell-based", "settings": "Homo sapiens, Colon Cancer, 48 h, read-out: GI% COLO 205", "summary_of_the_method": "as §1"}, "OVCAR-8": {"tested_on": "OVCAR-8", "experiment": "NCI one-dose SRB growth inhibition", "type": "cell-based", "settings": "Homo sapiens, Ovarian Cancer, 48 h, read-out: GI% OVCAR-8", "summary_of_the_method": "as §1"}, "SK-MEL-2": {"tested_on": "SK-MEL-2", "experiment": "NCI one-dose SRB growth inhibition", "type": "cell-based", "settings": "Homo sapiens, Melanoma, 48 h, read-out: GI% SK-MEL-2", "summary_of_the_method": "as §1"}, "MDA-MB-435": {"tested_on": "MDA-MB-435", "experiment": "NCI one-dose SRB growth inhibition", "type": "cell-based", "settings": "Homo sapiens, Melanoma, 48 h, read-out: GI% MDA-MB-435", "summary_of_the_method": "as §1"}, "SW-620": {"tested_on": "SW-620", "experiment": "NCI one-dose SRB growth inhibition", "type": "cell-based", "settings": "Homo sapiens, Colon Cancer, 48 h, read-out: GI% SW-620", "summary_of_the_method": "as §1"}, "SF-295": {"tested_on": "SF-295", "experiment": "NCI one-dose SRB growth inhibition", "type": "cell-based", "settings": "Homo sapiens, CNS Cancer, 48 h, read-out: GI% SF-295", "summary_of_the_method": "as §1"}, "CCRF-CEM": {"tested_on": "CCRF-CEM", "experiment": "NCI one-dose SRB growth inhibition", "type": "cell-based", "settings": "Homo sapiens, Leukemia, 48 h, read-out: GI% CCRF-CEM", "summary_of_the_method": "as §1"}, "MDA-MB-468": {"tested_on": "MDA-MB-468", "experiment": "NCI one-dose SRB growth inhibition", "type": "cell-based", "settings": "Homo sapiens, Breast Cancer, 48 h, read-out: GI% MDA-MB-468", "summary_of_the_method": "as §1"}, "NCI-H226": {"tested_on": "NCI-H226", "experiment": "NCI one-dose SRB growth inhibition", "type": "cell-based", "settings": "Homo sapiens, Non-Small Cell Lung Cancer, 48 h, read-out: GI% NCI-H226", "summary_of_the_method": "as §1"}, "M14": {"tested_on": "M14", "experiment": "NCI one-dose SRB growth inhibition", "type": "cell-based", "settings": "Homo sapiens, M14, 48 h, Melanoma, read-out: GI% M14", "summary_of_the_method": "as §1"}, "SK-MEL-28": {"tested_on": "SK-MEL-28", "experiment": "NCI one-dose SRB growth inhibition", "type": "cell-based", "settings": "Homo sapiens, Melanoma, 48 h, read-out: GI% SK-MEL-28", "summary_of_the_method": "as §1"}, "NCI-H322M": {"tested_on": "NCI-H322M", "experiment": "NCI one-dose SRB growth inhibition", "type": "cell-based", "settings": "Homo sapiens, Non-Small Cell Lung Cancer, 48 h, read-out: GI% NCI-H322M", "summary_of_the_method": "as §1"}, "MCF7": {"tested_on": "MCF7", "experiment": "NCI one-dose SRB growth inhibition", "type": "cell-based", "settings": "Homo sapiens, Breast Cancer, 48 h, read-out: GI% MCF7", "summary_of_the_method": "as §1"}, "A549/ATCC": {"tested_on": "A549/ATCC", "experiment": "NCI one-dose SRB growth inhibition", "type": "cell-based", "settings": "Homo sapiens, A549, 48 h, Non-Small Cell Lung Cancer, read-out: GI% A549/ATCC", "summary_of_the_method": "as §1"}, "HL-60(TB)": {"tested_on": "HL-60(TB)", "experiment": "NCI one-dose SRB growth inhibition", "type": "cell-based", "settings": "Homo sapiens, Leukemia, 48 h, read-out: GI% HL-60(TB)", "summary_of_the_method": "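SRB-based cell growth/viability measurement after a 48-hour compound treatment, carried out under the NCI Drug Evaluation Branch method.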"}, "EKVX": {"tested_on": "EKVX", "experiment": "NCI one-dose SRB growth inhibition", "type": "cell-based", "settings": "Homo sapiens, Non-Small Cell Lung Cancer, 48 h, read-out: GI% EKVX", "summary_of_the_method": "as §1"}, "NCI-H522": {"tested_on": "NCI-H522", "experiment": "NCI one-dose SRB growth inhibition", "type": "cell-based", "settings": "Homo sapiens, NCI-H522, 48 h, Non-Small Cell Lung Cancer, read-out: GI% NCI-H522", "summary_of_the_method": "as §1"}, "KM12": {"tested_on": "KM12", "experiment": "NCI one-dose SRB growth inhibition", "type": "cell-based", "settings": "Homo sapiens, Colon Cancer, 48 h, read-out: GI% KM12", "summary_of_the_method": "as §1"}, "RPMI-8226": {"tested_on": "RPMI-8226", "experiment": "NCI one-dose SRB growth inhibition", "type": "cell-based", "settings": "Homo sapiens, RPMI-8226, 48 h, Leukemia, read-out: GI% RPMI-8226", "summary_of_the_method": "as §1"}, "WI-38 cell line": {"tested_on": "WI-38 cell line", "experiment": "MTT cytotoxicity towards non-tumorigenic cells", "type": "cell-based, human", "experimental": "The cytotoxic activity of all synthesized pyridines 5a–l were assessed against non-tumorigenic human lung fibroblast WI-38 cell line to investigate their safety, using the MTT colorimetric assay."}, "HCT-116 cell line": {"tested_on": "HCT-116 cell line", "experiment": "MTT anti-proliferative assay", "type": "cell-based", "settings": "Homo sapiens, 48 h of incubation, mean ± SD of three experiments", "summary_of_the_method": "(§2)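 A549 and HCT-116 cells grown in DMEM with 10% FBS and 10 μg/mL insulin were treated with compounds; viability read by MTT colorimetric assay, doxorubicin as reference. IC50 from Boltzmann sigmoidal concentration–response fit, three wells per condition, experiments in triplicate.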"}, "A549 cell line": {"tested_on": "A549 cell line", "experiment": "MTT anti-proliferative assay", "type": "cell-based", "settings": "Homo sapiens, 48 h of incubation, mean ± SD of three experiments", "summary_of_the_method": "as §2"}},
  "data": [
    {"molecule": "Cc1nc(-c2cccs2)ccc1NC(=O)Nc1ccc(F)cc1", "note": "[Compound 5h, 1-(4-Fluorophenyl)-3-(2-methyl-6-(thiophen-2-yl)pyridin-3-yl)urea]", "values": [
      {"measurement": "inhibition at 10 µM", "setting": "SNB-19", "result": "< 10", "unit": "%"},
      {"measurement": "inhibition at 10 µM", "setting": "OVCAR-4", "result": "< 10", "unit": "%"},
      {"measurement": "inhibition at 10 µM", "setting": "LOX IMVI", "result": "< 10", "unit": "%"},
      {"measurement": "inhibition at 10 µM", "setting": "HCT-15", "result": 26, "unit": "%"},
      {"measurement": "inhibition at 10 µM", "setting": "COLO 205", "result": "< 10", "unit": "%"},
      {"measurement": "inhibition at 10 µM", "setting": "OVCAR-8", "result": "< 10", "unit": "%"},
      {"measurement": "inhibition at 10 µM", "setting": "SK-MEL-2", "result": 24, "unit": "%"},
      {"measurement": "inhibition at 10 µM", "setting": "MDA-MB-435", "result": "< 10", "unit": "%"},
      {"measurement": "inhibition at 10 µM", "setting": "SW-620", "result": "< 10", "unit": "%"},
      {"measurement": "inhibition at 10 µM", "setting": "SF-295", "result": "< 10", "unit": "%"},
      {"measurement": "inhibition at 10 µM", "setting": "CCRF-CEM", "result": 10, "unit": "%"},
      {"measurement": "inhibition at 10 µM", "setting": "MDA-MB-468", "result": 16, "unit": "%"},
      {"measurement": "inhibition at 10 µM", "setting": "NCI-H226", "result": "< 10", "unit": "%"},
      {"measurement": "inhibition at 10 µM", "setting": "M14", "result": "< 10", "unit": "%"},
      {"measurement": "inhibition at 10 µM", "setting": "SK-MEL-28", "result": "< 10", "unit": "%"},
      {"measurement": "inhibition at 10 µM", "setting": "NCI-H322M", "result": "< 10", "unit": "%"},
      {"measurement": "inhibition at 10 µM", "setting": "MCF7", "result": 22, "unit": "%"},
      {"measurement": "inhibition at 10 µM", "setting": "A549/ATCC", "result": 32, "unit": "%"},
      {"measurement": "inhibition at 10 µM", "setting": "HL-60(TB)", "result": 15, "unit": "%"},
      {"measurement": "inhibition at 10 µM", "setting": "EKVX", "result": "< 10", "unit": "%"},
      {"measurement": "inhibition at 10 µM", "setting": "NCI-H522", "result": 39, "unit": "%"},
      {"measurement": "inhibition at 10 µM", "setting": "KM12", "result": 18, "unit": "%"},
      {"measurement": "inhibition at 10 µM", "setting": "RPMI-8226", "result": 24, "unit": "%"},
      {"measurement": "IC50", "setting": "WI-38 cell line; WI-38, MTT, non-tumorigenic human lung fibroblast, mean ± SD of three experiments", "result": "143 ± 8.38", "unit": "µM"},
      {"measurement": "S. I. WI-38/A549", "setting": "WI-38 cell line; selectivity index, IC50 WI-38 / IC50 A549", "result": 13.4},
      {"measurement": "melting point", "result": "217 to 219", "unit": "°C"},
      {"measurement": "IC50", "setting": "HCT-116 cell line", "result": "8.25 ± 0.84", "unit": "µM"},
      {"measurement": "IC50", "setting": "A549 cell line", "result": "10.6 ± 0.86", "unit": "µM"}
    ]}
  ]
}
